These results are taken from patent publication US6403574B1, “Azetidinecarboxamide derivatives for treating CNS disorders” (Vernalis Research Limited, priority 1998, dated 2002).

The test system of data set [1] is 3-MPA-induced seizures in T/O strain mice. As to the kind of experiment: Antagonism of 3-MPA-induced seizures. The following applies: test drug 30 mg/kg p.o. 60 min before 3-MPA i.v. It counts as in vivo, mouse. How it is done:
Antagonism of 3-MPA-Induced Seizures Several animal seizure models are available for the screening and characterisation of anticonvulsant (antiepileptic) drugs. Most models employ a chemical convulsant to induce seizures and the anticonvulsant potencies of novel compounds are measured in terms of their ability to increase the dose of convulsant required to induce a seizure response (or to prolong the latency to seizure onset following a bolus dose of the convulsant). Most chemical convulsants work by blocking the neurotransmitter function of gamma-aminobutyric acid (GABA), the predominant inhibitory neurotransmitter in the mammalian brain. This can be achieved by blocking the postsynaptic action of GABA using pentylenetetrazol or bicuculline, or via a presynaptic action using a GABA synthesis inhibitor to decrease GABA release into the synapse. In this case, the inhibitor of glutamate decarboxylase (GAD), 3-mercaptopropionic acid (3-MPA), was used as the convulsant challenge agent. […] Male albino T/O strain mice (obtained from Tuck) weighing 28-40 g were used in these studies. Animals were assigned randomly to treatment groups and vehicle or test drug (at a dose of 30 mg/kg) were administered p.o. to groups of 12 animals 60 min before the administration of a bolus dose of 3-MPA intravenously. Immediately following 3-MPA administration, each mouse was placed individually into a cage for observation. The seizure response of each animal was scored quantally as present or absent (response or non-response) during the 5 min period immediately following 3-MPA administration. A seizure response was defined as the onset of the initial clonic phase of the seizure (abrupt loss of righting reflex accompanied by vocalisation). The seizure threshold (in terms of mg/kg i.v. of 3-MPA required to evoke a seizure response) was determined in each treatment group by a sequential up/down method followed by modified probit analysis of the quantal data. A range of doses of 3-MPA was prepared (12.5-200.0 mg/kg i.v.) increasing by a constant geometric factor […], which was found in pilot studies to generate suitable data for analysis by this method. In these studies, 3-MPA was obtained from Sigma. Test compounds were prepared as solutions dissolved in 45% w/v aqueous 2-hydroxypropyl-β-cyclodextrin. 3-MPA was dissolved in isotonic saline and its pH adjusted to 6 using 1M sodium hydroxide solution. Drugs were administered in a dose volume of 10 ml/kg body weight. SC=seizure threshold after treatment with test drug SV=seizure threshold in vehicle treated group

In data set [2] the test system is elevated zero-maze model of anxiety. The data set is described as follows: Anxiolytic activity in the elevated zero-maze model. It counts as in vivo, rat. The following applies: dose of 30 mg/Kg, orally 1 hour prior to zero-maze testing. An excerpt: Measurement of Anxiolytic Activity in Mice Using the Elevated Zero-maze Model
Food and water are made freely available.
The maze is cleaned with a 5% methanol/water solution and dried thoroughly between test sessions.

Another data set concerns the target GABAA receptor. The data set is described as follows: Binding affinity to the GABAA receptor with [35S]-TBPS. The settings on record: membranes from rat fore-brain; [35S]-TBPS 1 nM; read-out: IC50, concentration required to displace 50% of the specific [35S]-TBPS binding. The protocol: Measurement of Binding Affinity to the GABAA Receptor with [^35S]-TBPS
The ability of test compounds to bind to the GABAA receptor was measured in membranes prepared from rat fore-brain using the procedure described by Green et al (Green, A. R., Misra, A., Murray, T. K., Snape, M. F. & Cross, A. J. Neurophamacology, 1996, 35, 1243-1250).
Binding assays were performed in plastic microtitre plates. In each study total assay volume contained [^35S]-TBPS (1 nM final concentration), membrane preparation and displacing drugs where appropriate. Drug solutions were prepared at a concentration of 10 mM in an appropriate solvent (EtOH, DMSO or H2O) and then diluted with assay buffer. Non-specific binding was determined using GABA. The free ligand concentration was determined by counting aliquots of the [^35S]-TBPS solution. The concentration of test compounds required to displace 50% of the specific binding (IC50) was determined from displacement curves.

Broadly, the melting point is the temperature, or range, at which the solid turns liquid. `C=CCNC(=O)N1CC(OCc2ccc(Cl)cc2)C1` [Example 1, 3-(4-Chlorobenzyloxy)-N-(2-propenyl)azetidine-1-carboxamide] showed a melting point of 110 to 111 °C. In addition, in data set [1], the “SC = seizure threshold after treatment with test drug” value (“SC = seizure threshold” below) is 35.98 mg/kg i.v. of 3-MPA. Further, the “Anxiolytic activity (increase in the frequency of head dips)” value in data set [2] is “effective”. As for `C=CCNC(=O)N1CC(OCc2ccc(Cl)c(Cl)c2)C1` [Example 2, 3-(3,4-Dichlorobenzyloxy)-N-(2-propenyl)azetidine-1-carboxamide], the melting point lay within 88 to 89 °C. At GABAA receptor, the IC50 came to 56 µM. The “SC = seizure threshold” value in data set [1] was 66.7 mg/kg i.v. of 3-MPA.

`C=CCNC(=O)N1CC(OCc2cccc(C(F)(F)F)c2)C1` [Example 3, 3-(3-(Trifluoromethyl)benzyloxy)-N-(2-propenyl)azetidine-1-carboxamide] had a melting point of 108 °C. Also, the IC50 at GABAA receptor worked out at 87 µM. Also, in data set [1], the “SC = seizure threshold” value is recorded as 129.3 mg/kg i.v. of 3-MPA. `C=CCNC(=O)N1CC(OCc2ccc(C(F)(F)F)cc2)C1` [Example 4, 3-(4-(Trifluoromethyl)benzyloxy)-N-(2-propenyl)azetidine-1-carboxamide] came in with a melting point of 120 °C. Moreover, the IC50 at GABAA receptor was 91 µM. Also, the “SC = seizure threshold” value in data set [1] is reported as 75.7 mg/kg i.v. of 3-MPA. Take `C=CCNC(=O)N1CC(OCc2ccc(F)cc2)C1` [Example 5, 3-(4-Fluorobenzyloxy)-N-(2-propenyl)azetidine-1-carboxamide]: the “SC = seizure threshold” value in data set [1] is given as 42.8 mg/kg i.v. of 3-MPA. Consider `C=CCNC(=O)N1CC(OC(c2ccc(Cl)cc2)c2ccc(Cl)cc2)C1` [Example 6, 3-(Bis(4-chlorophenyl)methoxy)-N-(2-propenyl)azetidine-1-carboxamide], for which the IC50 on GABAA receptor worked out at 64 µM. Take `C[C@@H](O)CNC(=O)N1CC(OC(c2ccc(Cl)cc2)c2ccc(Cl)cc2)C1` [Example 7, (R)-3-(Bis(4-chlorophenyl)methoxy)-N-(2-hydroxypropyl)azetidine-1-carboxamide]: the IC50 at GABAA receptor was 32 µM. The compound `C=CCNC(=O)N1CC(OCc2ccc(C#N)cc2)C1` [Example 10] registered a melting point of 95 to 96 °C.

Compound `C=CCNC(=O)N1CC(OCc2ccc(-c3ccccc3)cc2)C1` [Example 11] gave a melting point of 160 °C. Same read-out and setting: for `C=CCNC(=O)N1CC(OCc2ccc3ccccc3c2)C1` [Example 12] the value was 141 to 142 °C.

`CCCNC(=O)N1CC(OCc2ccc(Cl)c(Cl)c2)C1` [Example 13] had a melting point of 89 to 90 °C. Compound `C=CCNC(=O)N1CC(OCc2cccc(Cl)c2)C1` [Example 14] showed a melting point of 67 to 68 °C. Take `C=CCNC(=O)N1CC(OCc2cccc(F)c2)C1` [Example 15]: the melting point lay within 59 to 60 °C. Regarding `CCCNC(=O)N1CC(OCc2ccc(C(F)(F)F)cc2)C1` [Example 16], the melting point lay within 128 to 129 °C. The compound `CCCNC(=O)N1CC(OCc2cccc(C(F)(F)F)c2)C1` [Example 17] gave a melting point of 62 to 63 °C.

In the case of `C[C@H](O)CNC(=O)N1CC(OCc2cccc(C(F)(F)F)c2)C1` [Example 18], the melting point was 67 to 68 °C. Take `C[C@@H](O)CNC(=O)N1CC(OCc2cccc(C(F)(F)F)c2)C1` [Example 19]: the melting point fell in the range of 67 to 68 °C.

`C[C@@H](O)CNC(=O)N1CC(OCc2ccc(C(F)(F)F)cc2)C1` [Example 20] yielded a melting point of 97 to 98 °C. Regarding `C[C@H](O)CNC(=O)N1CC(OCc2ccc(C(F)(F)F)cc2)C1` [Example 21], the melting point lay in the range of 97 to 98 °C. The same measure, in the same setting: for `C[C@@H](O)CNC(=O)N1CC(OCc2ccc(Cl)c(Cl)c2)C1` [Example 22] the value was 88 to 89 °C; for `C[C@H](O)CNC(=O)N1CC(OCc2ccc(Cl)c(Cl)c2)C1` [Example 23], 88 to 89 °C; for `C[C@H](O)CNC(=O)N1CC(OCc2ccc(Cl)cc2)C1` [Example 24], 85 to 86 °C. `C#CCNC(=O)N1CC(OCc2cccc(C(F)(F)F)c2)C1` [Example 25]: the melting point was in the range of 90 to 91 °C. Still for that read-out and setting: the value for `C=CCNC(=O)N1CC(OCc2ccccc2)C1` [Example 26] was 76 to 77 °C; that for `C[C@H](O)CNC(=O)N1CC(OCc2ccc(F)cc2)C1` [Example 27] was 73 to 74 °C. As to `C=CCNC(=O)N1CC(OCc2ccccc2C(F)(F)F)C1` [Example 28], the melting point is 63 °C. On the same count and under the same terms, the value for `C=CCNC(=O)N1CC(OCc2cc(F)ccc2F)C1` [Example 29] was 75 °C; that for `C=CCNC(=O)N1CC(OCc2ccc(Cl)cc2Cl)C1` [Example 30] was 100 °C. The same measure, in the same setting: the value for `C=CCNC(=O)N1CC(OCc2cc(F)cc(F)c2)C1` [Example 31] was 79 °C.

`C=CCNC(=O)N1CC(OCc2ccc(F)c(F)c2)C1` [Example 33] yielded a melting point of 82.5 to 85 °C.

In turn, `C=CCNC(=O)N1CC(OCc2ccc(F)cc2F)C1` [Example 34] displayed a melting point of 91 to 92.5 °C. In the case of `C=CCNC(=O)N1CC(OCc2cc(C(F)(F)F)cc(C(F)(F)F)c2)C1` [Example 35], the melting point lay in the range of 80.5 to 81.5 °C. Same read-out and setting: the value for `C[C@H](O)CNC(=O)N1CC(OCc2ccc(Cl)cc2)C1` [Example 36] was 76 to 78 °C; that for `C#CCNC(=O)N1CC(OCc2ccc(Cl)cc2)C1` [Example 37] was 123 to 124 °C; that for `C#CCNC(=O)N1CC(OCc2ccc(C(C)(C)C)cc2)C1` [Example 38] was 94 to 96 °C. On the same count and under the same terms, the value for `C[C@@H](O)CNC(=O)N1CC(OCc2ccc(F)cc2)C1` [Example 40] was 72 to 73 °C. Still for that read-out and setting: for `C=CCNC(=O)N1CC(OCc2ccc(C(C)(C)C)cc2)C1` [Example 41] the value was 79 to 80 °C. The compound `C#CCNC(=O)N1CC(OCc2ccc(F)cc2)C1` [Example 43] came in with a melting point of 94 to 96 °C.
